Experimental data reported in ChEMBL document CHEMBL1159319, “Deoxyartemisinin derivatives from photooxygenation of anhydrodeoxydihydroartemisinin and their cytotoxic evaluation” (2002).
≈ marks a conversion by molar mass, not a printed value.

Assays:
Format in all cases: functional
Conditions in all cases: read-out: ED50 (the source's name)
RPMI-8226 = assay: Cytotoxicity against human RPMI8226 cells
CCRF-CEM = assay: Cytotoxicity against human CCRF-CEM cells
HL-60 = assay: Cytotoxicity against human HL-60(TB) cells
MCF7 = assay: Cytotoxicity against human MCF7 cells
BT-549 = assay: Cytotoxicity against human BT549 cells
SR = assay: Cytotoxicity against human SR cells
HOP-92 = assay: Cytotoxicity against human HOP92 cells
IGROV-1 = assay: Cytotoxicity against human IGROV1 cells
K562 = assay: Cytotoxicity against human K562 cells

For `C=C1C(=O)O[C@@H]2O[C@@]3(C)CC[C@H]4[C@H](C)CC[C@@H]1[C@@]24O3` [DEOXYARTEMISITENE], which EC50 (RPMI-8226) is on record?
Its EC50 is 1.68 µg/mL (≈ 6.36 µM).

And the EC50 (CCRF-CEM)?
The EC50 was 0.92 µg/mL (≈ 3.48 µM).

What about the EC50 (HL-60) of the same compound?
Its EC50 is 0.69 µg/mL (≈ 2.61 µM).

And the EC50 (MCF7)?
The EC50 was 1.46 µg/mL (≈ 5.52 µM).

What about the EC50 (BT-549) of the same compound?
Its EC50 is 1.97 µg/mL (≈ 7.45 µM).

What about the EC50 (SR) of the same compound?
Its EC50 is 1.89 µg/mL (≈ 7.15 µM).

What about the EC50 (HOP-92) of the same compound?
Its EC50 is 0.92 µg/mL (≈ 3.48 µM).

And the EC50 (IGROV-1)?
The EC50 was 0.89 µg/mL (≈ 3.37 µM).

What about the EC50 (K562) of the same compound?
The EC50 was 0.94 µg/mL (≈ 3.56 µM).
